US10239829B2, “Antagonists of the glucagon receptor” (Metabasis Therapeutics, Inc., priority 2007, dated 2019)

Assays:
db/db mice = test: Glucose lowering in db/db mice; format: in vivo, mouse; conditions: freely-feeding; for inhibition in vivo at 30 mg/kg / inhibition in vivo at 100 mg/kg: Mus musculus, oral gavage, 100% = normalization to lean db/+ mice; for Glucose lowering: vs vehicle-treated db/db mice
Description: Purpose: To assess the effects of compounds of the invention on blood glucose levels in the db/db mouse, an animal model of type 2 diabetes.
Methods: Compounds were dissolved in polyethylene glycol-400 and administered by oral gavage to db/db mice in the freely-feeding state at doses of 30 and/or 100 mg/kg. Blood glucose levels were assessed in blood samples obtained by tail bleed at baseline (prior to drug administration) and at regular time intervals over 24 hours using a portable glucometer such as the OneTouch or HemoCue meters. The magnitude of blood glucose lowering elicited by the compounds of the invention was determined by comparison to those in db/db mice administered only the vehicle. The percentage glucose lowering was calculated by factoring in the blood glucose levels of vehicle-treated lean db/+(heterozygote) mice, with 100% representing the normalization of blood glucose levels from the hyperglycemic state (vehicle-treated db/db mice) to the normoglycemic state (vehicle-treated db/+ mice).

[1] = test system: glucagon-challenged Beagle dogs; test: Glucose lowering in glucagon-challenged Beagle dogs; format: in vivo, dog; conditions: Beagle dogs (n=3), oral gavage 38 mg/kg in PEG-400, glucagon 20 μg s.c. after 1.5 hours
Description: Purpose: To assess the effects of compounds of the invention on blood glucose levels in glucagon-challenged Beagle dogs.
Methods: Beagle dogs (n=3) were treated with vehicle (polyethylenelglycol-400) by oral gavage. After 1.5 hours, glucagon (20 μg) was administered subcutaneously. Blood glucose levels were measured prior to glucagon administration and at 10-minute intervals thereafter for up to an hour. Blood samples for these determinations were obtained from a superficial ear vein and were measured using a OneTouch glucometer. After a 1-week washout, the animals were treated by oral gavage with the compound of Example 2.009 at a dose of 38 mg/kg (polyethylenelglycol-400 formulation). The glucagon challenge and blood sampling were then performed as before.

[2] = oral gavage in PEG-400, dose 30 mg/Kg
[3] = oral gavage in PEG-400, dose 100 mg/Kg

SMILES	inhibition in vivo at 30 mg/kg (db/db mice) [%]	Glucose lowering (db/db mice; [2]) [mg/dL]	attenuation of the glucagon-induced glucose excursion [1]	inhibition in vivo at 100 mg/kg (db/db mice) [%]	Glucose lowering (db/db mice; [3]) [mg/dL]
Cc1cc(C(F)(F)F)ccc1-c1ccc(NC(=O)C(Cc2ccc(C(=O)NCCS(=O)(=O)O)cc2)c2ccc(/C=C/C(C)(C)C)cc2)cc1Cl (centres unmarked) [Example 1.173]	50	172	–	–	–
CC(C)(C)C1CC=C(c2ccc(C(Cc3ccc(C(=O)NCCS(=O)(=O)O)cc3)C(=O)Nc3ccc(-c4ccc(C(F)(F)F)cc4Cl)cc3)cc2)CC1 (centres unmarked) [Example 1.270]	24	63	–	–	–
CC(C)(C)/C=C/c1ccc(C(Cc2ccc(C(=O)NCCS(=O)(=O)[O-])cc2)C(=O)Nc2ccc(-c3cc4ccccc4o3)cc2)cc1.[Na+] (centres unmarked) [Example 1.052]	61	147	–	–	–
CC(C)(C)/C=C/c1ccc(C(Cc2ccc(C(=O)NCCS(=O)(=O)O)cc2)C(=O)Nc2ccc(C3=Cc4ccccc4C3)cc2)cc1 (centres unmarked) [Example 1.321]	68	161	–	–	–
CC(C)(C)c1ccc(C(Cc2ccc(C(=O)NCCS(=O)(=O)[O-])cc2)c2cc(-c3cccc(-c4ccc(Cl)cc4)c3)on2)cc1.[Na+] (centres unmarked) [Example 2.009]	–	–	approximately 40%	–	–
Cc1cc(Cl)ccc1-c1ccc(NC(=O)C(Cc2ccc(C(=O)NCCS(=O)(=O)O)cc2)c2ccc(C3=CCC(C(C)(C)C)CC3)cc2)cc1 (centres unmarked) [Example 1.269]	42	124	–	–	–
CC(c1ccc(C(=O)NCCS(=O)(=O)[O-])cc1)C(C(=O)Nc1ccc(-c2ccc(Cl)cc2Cl)cc1)c1ccc(/C=C/C(C)(C)C)cc1.[Na+] (centres unmarked) [Example 1.137]	53	159	–	–	–
CC(C)(C)COc1ccc(C(Cc2ccc(C(=O)NCCS(=O)(=O)O)cc2)C(=O)Nc2ccc(-c3ccc(C(F)(F)F)cc3Cl)cc2)cc1 (centres unmarked) [Example 1.314]	40	95	–	–	–
Cc1cc(NC(=O)C(Cc2ccc(C(=O)NCCS(=O)(=O)O)cc2)c2ccc(OCC(C)(C)C)cc2)ccc1-c1ccc(C(F)(F)F)cc1C (centres unmarked) [Example 1.311]	36	109	–	–	–
CC(C)(C)COc1ccc(C(Cc2ccc(C(=O)NCCS(=O)(=O)O)cc2)C(=O)Nc2ccc(-c3ccc(Cl)cc3Cl)cc2)cc1.[Na+] (centres unmarked) [Example 1.136]	16	47	–	–	–
CC(C)(C)C1CCC(C(Cc2ccc(C(=O)NCCS(=O)(=O)[O-])cc2)C(=O)Nc2ccc(-c3ccc(Cl)cc3Cl)cc2)CC1.[Na+] (centres unmarked) [Example 1.138]	6	19	–	–	–
Cc1cc(Cl)ccc1-c1ccc(NC(=O)C(Cc2ccc(C(=O)NCCS(=O)(=O)O)cc2)c2ccc(/C=C/C(C)(C)C)cc2)cc1Cl (centres unmarked) [Example 1.359]	–	–	–	48	150
CCC(c1ccc(C(=O)NCCS(=O)(=O)O)cc1)C(C(=O)Nc1ccc(-c2ccc(Cl)cc2Cl)cc1)c1ccc(/C=C/C(C)(C)C)cc1 (centres unmarked) [Example 1.315]	57	172	–	–	–
Cc1cc(C(F)(F)F)ccc1-c1ccc(NC(=O)C(Cc2ccc(C(=O)NCCS(=O)(=O)O)cc2)c2ccc(/C=C/C(C)(C)C)cc2)cc1 (centres unmarked) [Example 1.320]	39	121	–	–	–
CC(C)(C)/C=C/c1ccc(C(Cc2ccc(C(=O)NCCS(=O)(=O)[O-])cc2)C(=O)Nc2ccc(-c3ccc(Cl)cc3Cl)cc2)cc1.[Na+] (centres unmarked) [Example 1.133]	57	157	–	–	–
O=C(NCCS(=O)(=O)O)c1ccc(CC(C(=O)Nc2ccc(-c3cc4ccccc4o3)cc2Cl)c2ccc(OC(F)(F)F)cc2)cc1 (centres unmarked) [Example 1.155]	49	108	–	–	–
Cc1cc(NC(=O)C(Cc2ccc(C(=O)NCCS(=O)(=O)O)cc2)c2ccc(/C=C/C(C)(C)C)cc2)ccc1-c1ccc(C(F)(F)F)cc1Cl (centres unmarked) [Example 1.179]	34	102	–	–	–
CC(C)(C)/C=C/c1ccc(C(Cc2ccc(C(=O)NCCS(=O)(=O)[O-])cc2)C(=O)Nc2ccc(-c3ccc(C(F)(F)F)cc3Cl)cc2)cc1.[Na+] (centres unmarked) [Example 1.135]	–	–	–	41	131
